Data taken from patent publication EP4653443A1, “STEREOISOMER AND DEUTERATED DERIVATIVE OF PYRAZOLOQUINAZOLINE COMPOUND AND USE” (Phil Rivers Technology Co., Ltd, priority 2023, dated 2024).
Converted amounts (≈) assume the structure as drawn. Where two headings read alike, the source gives them in different places.

How the values were obtained:
[1] = tested on: Pancreatic cancer cell line BxPC-3; experiment: BxPC-3 subcutaneous tumor xenograft mouse model (pancreatic cancer); format: in vivo; conditions: for TGI: test endpoint, TGITV
in vivo = conditions: iv
Method: The objective of this study is to investigate the pharmacokinetic properties of the disclosed compounds after tail vein intravenous injection (IV) and oral administration (PO) in female CD1 mice. Plasma was sampleed at 0, 0.083, 0.25, 0.5, 1, 2, 4, 7 and 24 hours post-dosing, and the drug concentrations in plasma at different time points were detected by LC-MS/MS, and the relevant pharmacokinetic parameters were calculated using WinNonlin software.
Experimental female CD1 mice were purchased from SPF Laboratory Animal Technology Co., Ltd., aged 6-8 weeks with body weights of 20-30 g. The female CD1 mice were housed in a controlled environment (set temperature at 20-25°C and relative humidity at 40-70%). A 12-hour light/12-hour dark cycle was maintained unless interrupted by study-related events.
Compound solutions are prepared in an ultra-clean workbench and prepared immediately before use, and mixed thoroughly prior to use to ensure formulation homogeneity.
Vehicle composition: 10% DMSO+90% (20%SBE-β-CD) Table 4. Doses Used in IV Administration
Vehicle composition: 10% DMSO + 90% (20%SBE-β-CD) Table 5. Doses Used in PO Administration
Vehicle composition: 0.5% MC + 1% Tween-20 Table 6. Doses Used in PO Administration
Prior to the experiment, the animals were randomly grouped. The mice were fasted for 12 hours before drug administration, and free feeding was resumed 4 hours after administration.
All blood samples were transferred into plastic microcentrifuge tubes containing anticoagulant (EDTA-K2), and then centrifuged at 4000 g for 5 minutes at 4°C. The supernatant was transferred into a microcentrifuge tube without anticoagulant, and the plasma was stored in a -75±15°C refrigerator until detection.
The blood samples were purified by HPLC and analyzed by mass spectrometry to obtain the plasma concentration-time curve of the disclosed compound.
The pharmacokinetic parameters were estimated by non-compartmental model method (calculated by Phoenix WinNonlin software).

[2] = Metabolic stability in liver microsomes (human); format: in vitro ADME; conditions: for Residual Amount (%) 15 min / Residual Amount (%) 30 min / Residual Amount (%) 45 min / Residual Amount (%) 60 min: Human, first line of pair; for half-life at 2 µM / microsomal CLint at 2 µM: pH 7.4
Method: (§1) For negative samples, add 80µL of PBS (100mM, pH = 7.4) solution. Vortex at 800 rpm for 10 seconds, then pre-incubate in a 37°C water bath for 10 minutes. • 4) After pre-incubation, add 2 µL of control drug or test compound to each well to initiate the reaction. The reaction is carried out in a 37°C water bath at 60 rpm. • 5) At 0.5, 15, 30, 45, and 60 minutes, take 50 µL of the reaction system from each well and add it to 200 µL of cold methanol solution containing the internal standard to terminate the reaction. • 6) Mix thoroughly and centrifuge at 4000 rpm at 4°C for 30 minutes. • 7) Take 100µL of supernatant and mix with 100µL ultrapure water for liquid-mass analysis. *Internal standards: 50nM alprazolam, 50nM labetalol and 100nM ketoprofen
(§2) The internal standard method is adopted, and the ratio of the sample peak area to the internal standard peak area is used to calculate the residual percentage (taking the ratio of the sample peak area to the internal standard peak area at 0.5 minutes as 100%).

PSN1 cells = format: in vivo; conditions: for TGI: endpoint (day 31), TGITV; for mice died: 8 mice per group
Method: • M-NSG mice: SPF grade, female, 6-8 weeks old, weighing 16-20 g, purchased from Shanghai Model Organisms Technology Co., Ltd. • PSN1 cells: purchased from ATCC;
PSN1 cells were cultured in an incubator at 37°C and 5% CO2 in RPMI-1640 medium containing 10% inactivated fetal bovine serum. Cells were subcultured by passaging into new culture dishes every 2 to 3 days when they reach confluent.
• 8.2.3.1 PSN1 cells in the logarithmic growth phase were taken and resuspended in PBS. The cell suspension was inoculated subcutaneously into the right flank of M-NSG mice using a 1mL syringe (inoculated cell count: 5E6/mouse + 30%M). The survival status of the mice and the subcutaneous tumor formation were observed every other day. • 8.2.3.2 On the day of grouping, mice were randomly divided into 8 groups with 8 mice in each group based on the average tumor volume (~190 mm^3) and mouse body weight; • 8.2.3.3 The mice were dosed according to the grouping scheme, all by intragastric administration. […]. The hair condition and status of the mice were observed, and the body weight and tumor size were recorded twice a week to calculate TGI%. • 8.2.3.4 Grouping of Test Animals
When the average tumor volume reached ~ 190 mm^3, mice with moderate individual tumor volume were selected for inclusion in the group. The animals were randomly assigned to experimental groups according to tumor volume and mouse weight, with 8 mice in each group. Administration started one day after grouping.
TV = 1/2 × a × b2 [formula] wherein: a represents the long diameter of the tumor; b represents the short diameter of the tumor.
RTV = Vt /Vinitial × 100(%) [formula]
T/C(%) = (TRTV/CRTV) × 100% [formula]
TGI = [1−(TVt/TVinitial)/([…])] × 100% [formula]
wherein, TVt represents the tumor volume of the treatment group at each measurement; TVinitial represents the tumor volume of the treatment group at the time of grouping and administration; CVt represents the tumor volume of the control group at each measurement; CVinitial represents the tumor volume of the control group at the time of grouping and administration.
Body Weight Change Rate = (BWfinal-BWinitial) / BWinitial × 100% [formula] wherein, BWinitial represents the animal body weight at the time of grouping and administration; BWfinal represents the animal body weight at each measurement.
The original data of measurement and observation must be recorded. The analysis and processing are based on the original data, and the results are presented as mean and standard error of the mean (Mean ± SEM). T-test is used to analyze the difference in tumor volume between the control group and the treatment group. P < 0.05 indicates statistical significance.

[3] = Permeability and transporter substrate test in Caco-2 cells (ABBA); format: in vitro ADME; conditions: human, pH 7.4; for Papp A→B at 2 h, 5 µM: Caco-2, A to B, read-out: Average Papp PappA-B; for Papp B→A at 2 h, 5 µM: Caco-2, B to A, read-out: Average Papp PappB-A; for efflux ratio at 2 h, 5 µM: Caco-2, Papp(B-A)/Papp(A-B), read-out: Efflux Rate (ERa)
Method: (§3) Apparent permeability coefficient (Papp, cm/s) and efflux ratio were calculated using Microsoft Excel.

Caco-2 cells = experiment: as above; format: in vitro ADME; conditions: Caco-2
Method: as §3

[4] = Metabolic stability in liver microsomes (mouse); format: in vitro ADME; conditions: for Residual Amount (%) 15 min / Residual Amount (%) 30 min / Residual Amount (%) 45 min / Residual Amount (%) 60 min: Mouse, first line of pair
Method: as §1, §2

[5] = Thermodynamic solubility test; format: physicochemical; conditions: phosphate buffer, aqueous buffer, thermodynamic from solid, pH 7.4, 25°C
Method: Weigh 7.098 g Na2HPO4 (Solution A) and dissolve in 500 mL ultrapure water via sonication; weigh 3.40 g KH2PO4 (Solution B) and dissolve in 250 mL ultrapure water via sonication. Slowly add Solution B dropwise to Solution A and adjust the pH to 7.40 ± 0.05.
Shake at 1100 rpm, 25°C for 5 minutes; • i) Add 10 µL of the 1 mg/mL DMSO sample and 10 µL of buffer to 980 µL of methanol, then dilute 10-fold with methanol:water (1:1) as the standard sample for LC-MS/MS analysis.
Solubility was calculated using Excel. Solubility(μM) = (Areafiltered × DFfiltered)/(Areastd × DFstd) × [std] × DFstd [formula]

[6] = 90 mg/kg p.o. q.d. 10 consecutive days
[7] = 30 mg/kg p.o. q.d. 10 consecutive days
[8] = 60 mg/kg p.o. q.d. 10 consecutive days
[9] = female, CD1, mouse, plasma, 10 mg/kg
[10] = 60 mg/kg p.o. QD*6 times, during administration
[11] = male, CD-1, pH 7.4, Mouse liver microsomes
[12] = female, CD1, mouse, plasma, 2 mg/kg

Structure (SMILES)	Residual Amount (%) 15 min [2]	Residual Amount (%) 30 min [2]	Residual Amount (%) 45 min [2]	Residual Amount (%) 60 min [2]	Papp A→B at 2 h, 5 µM [3]	Papp B→A at 2 h, 5 µM [3]	efflux ratio at 2 h, 5 µM [3]	Classification Efflux Transporter Substrate (Caco-2 cells)	Residual Amount (%) 15 min [4]	Residual Amount (%) 30 min [4]	Residual Amount (%) 45 min [4]	Residual Amount (%) 60 min [4]	solubility at 24 h [5]	Mouse Mortality Rate [1, 8]	TGI [1, 8]	AUC(0-t) (in vivo; [9])	Vd (in vivo; [9])	clearance (in vivo; [9])	half-life (in vivo; [9])	half-life at 2 µM ([2]; Human liver microsomes)	further results
[2H]C1([2H])CN(c2ccc(OC(F)(F)F)c(Nc3ncc4c(n3)-c3c(c(C(N)=O)nn3CCO)CC4)c2)C([2H])([2H])[C@H]2CCCN21 [CPD04]	52.72%	28.62%	21.10%	13.41%	4.2 ×10⁻⁶ cm/s	25.1 ×10⁻⁶ cm/s	5.98	Probable (ERa ≧ 2)	61.30%	39.18%	34.10%	26.56%	3 µg/mL (≈ 5.33 µM)	–	–	–	–	–	–	–	Mouse Mortality Rate [1, 6]: 0%; TGI [1, 6]: 53%; AUC(0-t) (in vivo; mouse, in vivo, 10 mg/kg): 3340 ng·h/mL; Vd (in vivo; mouse, in vivo, 10 mg/kg): 2.31 L/kg; clearance (in vivo; mouse, in vivo, 10 mg/kg): 50.1 mL/min/kg; half-life (in vivo; mouse, in vivo, 10 mg/kg): 1.06 h; half-life ([2]; Human liver microsomes): 0.349 h; microsomal CLint ([2]; Human liver microsomes): 66.2 µL/min/mg; Mouse Mortality Rate (PSN1 cells; 90 mg/kg p.o. QD*6 times): 0%; mouse death (PSN1 cells; 90 mg/kg p.o. QD*6 times): no mouse death was found; TGI (PSN1 cells; 90 mg/kg p.o. QD*6 times): 40%; body weight loss (PSN1 cells; 90 mg/kg p.o. QD*6 times, throughout the period): no body weight loss was observed; half-life ([4]; Mouse liver microsomes): 0.532 h; microsomal CLint ([4]; Mouse liver microsomes): 43.4 µL/min/mg
[2H]C1([2H])N(C)C([2H])([2H])C([2H])([2H])N(c2ccc(OC(F)(F)F)c(Nc3ncc4c(n3)-c3c(c(C(N)=O)nn3CCO)CC4)c2)C1([2H])[2H] [CPD06]	86.05%	73.64%	68.37%	63.15%	5.18 ×10⁻⁶ cm/s	34.7 ×10⁻⁶ cm/s	6.71	Probable (ERa ≧ 2)	81.80%	68.21%	64.96%	57.01%	22.6 µg/mL (≈ 41.8 µM)	0%	71%	3050 ng·h/mL	3.02 L/kg	55.1 mL/min/kg	1.05 h	1.5 h	Mouse Mortality Rate [1, 7]: 0%; TGI [1, 7]: 33%; toxic symptoms during the treatment ([1]; BxPC-3 tumor-bearing mice): No obvious toxic symptoms were observed; microsomal CLint at 2 µM ([2]; Human liver microsomes): 15.4 µL/min/mg; Mouse Mortality Rate (PSN1 cells; 60 mg/kg p.o. QD*6 times): 0%; mice died (PSN1 cells; 60 mg/kg p.o. QD*6 times): No mice died; body weight loss (PSN1 cells; [10]): ≤ 15%; TGI (PSN1 cells; 60 mg/kg p.o. QD*6 times): 53%; half-life at 2 µM [4, 11]: 1.27 h; microsomal CLint [4, 11]: 18.2 µL/min/mg
CN1CCN(c2ccc(OC(F)(F)F)c(Nc3ncc4c(n3)-c3c(c(C(N)=O)nn3CCO)CC4)c2)CC1 [NMS-P937, onvansertib, reference compound]	80.23%	73.16%	69.74%	58.94%	6.09 ×10⁻⁶ cm/s	34.2 ×10⁻⁶ cm/s	5.61	Probable (ERa ≧ 2)	82.56%	69.31%	61.60%	53.17%	24.8 µg/mL (≈ 46.6 µM)	25%	61%	4540 ng·h/mL	3.22 L/kg	36.9 mL/min/kg	3.52 h	1.44 h	mice died ([1]; 60 mg/kg p.o. q.d., 8 mice per group): 2; AUC(0-t) (in vivo; [12]): 353 ng·h/mL; Vd (in vivo; [12]): 5.71 L/kg; clearance (in vivo; [12]): 95.7 mL/min/kg; half-life (in vivo; [12]): 1.52 h; microsomal CLint at 2 µM ([2]; Human liver microsomes): 16.1 µL/min/mg; Mouse Mortality Rate (PSN1 cells; 60 mg/kg p.o. QD*6 times): 50%; mice died (PSN1 cells; 60 mg/kg p.o. QD*6 times): half; body weight loss (PSN1 cells; [10]): decreased severely; half-life at 2 µM [4, 11]: 1.11 h; microsomal CLint [4, 11]: 20.9 µL/min/mg
